Some results are limits rather than exact numbers.

The values that follow come from PMC6028563, “Probing Substituents in the 1- and 3-Position: Tetrahydropyrazino-Annelated Water-Soluble Xanthine Derivatives as Multi-Target Drugs With Potent Adenosine Receptor Antagonistic Activity” (Frontiers in Chemistry, 2018).

The target of experiment [1] is T1, rat A1 AR (Rattus norvegicus, UniProt P25099).
T1 construct: A1 ARs of rat brain cortical membrane; from tissue; host or cells: rat brain cortex membranes
T1 sequence (P25099 1-326): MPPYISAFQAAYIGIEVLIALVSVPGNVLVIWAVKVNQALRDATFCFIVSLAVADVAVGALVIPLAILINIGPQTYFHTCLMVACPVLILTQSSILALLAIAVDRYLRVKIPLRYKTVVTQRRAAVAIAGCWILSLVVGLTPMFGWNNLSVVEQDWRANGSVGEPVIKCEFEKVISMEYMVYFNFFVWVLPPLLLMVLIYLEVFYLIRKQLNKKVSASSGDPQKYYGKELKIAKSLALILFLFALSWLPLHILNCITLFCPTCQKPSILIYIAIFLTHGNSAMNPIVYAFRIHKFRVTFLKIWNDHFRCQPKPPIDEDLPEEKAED
The experiment is described as follows: Radioligand binding assay at rat A1 AR (rat brain cortex) vs. [^3H]CCPA. The note with it: rat (r); for Ki: rat brain cortex, n = 3; for inhibition at 1.5 µM: read-out: % inhibition of radioligand binding at indicated concentration, A1 vs. [^3H]CCPA, at 1,500 nM. As to the method:
(§1) Membrane preparations and radioligand binding assays at rat A1 (rat brain cortex) and rat A2A ARs (rat brain striatum) were performed as previously described (Ozola et al., [2003]; Alnouri et al., [2015]). For assays at human A1, A2A, A2B, and A3 ARs, CHO cell membranes expressing one of the human AR subtypes were used as previously reported (Klotz et al., [1998]; Alnouri et al., [2015]; De Filippo et al., [2016]).
(§2) The synthesized tetrahydropyrazino[2,1-f ]purinediones 13–20 were evaluated in radioligand binding assays for their affinity to A1 ARs of rat brain cortical membrane and to A2A ARs of rat brain striatal membrane preparations. Selected compounds were further investigated for their affinity to human A1 and A2A ARs recombinantly expressed in Chinese hamster ovary (CHO) cells. All compounds were additionally investigated for their affinity to human A2B and A3 ARs recombinantly expressed in CHO cells to determine their AR subtype selectivity. […] It is well known that all xanthine derivatives lacking a ribose moiety, including tricyclic compounds, can only block ARs, but never act as AR agonists; therefore, additional functional studies were not required. […] Potent MAO-B inhibitors were additionally investigated for inhibition of human MAO-A to assess their selectivity. Results are presented in Tables 1–6, and data of standard ligands are included for comparison.

Experiment [2] addresses T2, rat A2A AR (Rattus norvegicus, UniProt P30543).
T2 construct: A2A ARs of rat brain striatal membrane preparations; from tissue; host or cells: rat brain striatum membranes
The experiment is described as follows: Radioligand binding assay at rat A2A AR (rat brain striatum) vs. [^3H]MSX-2. As to conditions: rat (r); for Ki: rat brain striatum, n = 3, read-out: Ki ± SEM, A2A vs. [^3H]MSX-2; for % inhibition of radioligand binding at indicated concentration, A2A vs. [^3H]MSX-2: at 1,000 nM. As to the method:
as §1, §2

The target of experiment [3] is T3, human A2B AR (Homo sapiens, UniProt P29275).
T3 construct: expressed in transfected cells; host or cells: CHO cells
T3 sequence (P29275 1-332): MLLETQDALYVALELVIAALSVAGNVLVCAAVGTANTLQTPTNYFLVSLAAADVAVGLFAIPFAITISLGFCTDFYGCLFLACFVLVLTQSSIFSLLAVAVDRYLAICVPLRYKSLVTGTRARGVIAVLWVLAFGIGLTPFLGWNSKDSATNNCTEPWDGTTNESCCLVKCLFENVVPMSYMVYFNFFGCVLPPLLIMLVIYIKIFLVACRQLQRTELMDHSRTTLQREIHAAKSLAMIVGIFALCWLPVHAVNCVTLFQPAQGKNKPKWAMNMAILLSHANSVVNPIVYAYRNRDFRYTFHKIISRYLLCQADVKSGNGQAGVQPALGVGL
The experiment is described as follows: Radioligand binding assay at human A2B AR vs. [^3H]PSB-603. The note with it: for Ki: CHO cell membranes, n = 2 (n = 3 where marked a), read-out: Ki ± SEM, A2B vs. [^3H]PSB-603; for inhibition at 1 µM: at 1,000 nM. As for the experimental part:
as §1, §2

For experiment [4], the target named is T4, human A3 AR (Homo sapiens, UniProt P0DMS8).
T4 construct: expressed in transfected cells; host or cells: CHO cells
T4 sequence (P0DMS8 1-318): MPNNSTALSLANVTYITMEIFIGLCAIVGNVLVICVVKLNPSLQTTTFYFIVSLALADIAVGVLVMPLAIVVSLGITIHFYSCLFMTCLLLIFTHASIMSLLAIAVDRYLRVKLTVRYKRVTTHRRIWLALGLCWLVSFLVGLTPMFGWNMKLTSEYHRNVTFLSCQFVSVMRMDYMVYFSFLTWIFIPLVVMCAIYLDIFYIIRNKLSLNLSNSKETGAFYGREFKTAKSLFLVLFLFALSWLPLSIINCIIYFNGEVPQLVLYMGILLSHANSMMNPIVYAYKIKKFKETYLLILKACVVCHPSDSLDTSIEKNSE
The experiment is described as follows: Radioligand binding assay at human A3 AR vs. [^3H]PSB-11. The note with it: for Ki: CHO cell membranes, n = 2 (n = 3 where marked a), read-out: Ki ± SEM, A3 vs. [^3H]PSB-11; for inhibition at 10 µM: at 10,000 nM, read-out: % inhibition of radioligand binding at indicated concentration, A3 vs. [^3H]PSB-11. As for the experimental part: as §1, §2

Experiment [5] addresses T5, recombinant human MAO-B (Homo sapiens, UniProt P27338).
T5 construct: purchased Sigma-Aldrich M7441; host or cells: baculovirus-infected insect cells
T5 sequence (P27338 1-520): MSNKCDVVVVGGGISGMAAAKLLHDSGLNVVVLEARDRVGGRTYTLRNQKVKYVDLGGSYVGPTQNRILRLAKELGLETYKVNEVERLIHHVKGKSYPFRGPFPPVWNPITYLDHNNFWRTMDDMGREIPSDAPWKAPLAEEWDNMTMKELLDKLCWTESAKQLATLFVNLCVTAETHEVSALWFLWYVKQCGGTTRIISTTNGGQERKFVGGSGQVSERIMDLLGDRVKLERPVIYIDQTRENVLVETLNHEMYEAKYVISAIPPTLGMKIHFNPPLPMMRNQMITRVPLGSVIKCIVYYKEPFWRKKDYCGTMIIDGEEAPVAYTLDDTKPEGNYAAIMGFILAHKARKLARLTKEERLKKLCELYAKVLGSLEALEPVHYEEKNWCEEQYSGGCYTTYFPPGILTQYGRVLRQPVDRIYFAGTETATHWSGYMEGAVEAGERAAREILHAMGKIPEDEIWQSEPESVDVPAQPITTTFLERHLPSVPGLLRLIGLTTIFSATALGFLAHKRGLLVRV
The experiment is described as follows: Monoamine oxidase assay (Amplex Red), MAO-B. Type of experiment: biochemical. The note with it: for inhibition at 10 µM: at 10,000 nM (10 μM), read-out: % inhibition at indicated concentration, Human MAO-B; for IC50: n = 3, read-out: IC50 ± SEM, Human MAO-B. As to the method: The determination of MAO-A and MAO-B inhibition was performed using commercially available recombinant human MAO-A and MAO-B enzymes expressed in baculovirus-infected insects sells (Sigma-Aldrich, M7316 and M7441) applying the commercially available Amplex® Red monoamine oxidase assay kit (Invitrogen A12214). The assays were performed as previously described. The determination of rat MAO-B inhibition was performed using mitochondrial-enriched fractions from male Sprague Dawley rat livers. […]

Setting [6] is: read-out: % inhibition of radioligand binding at indicated concentration, A2B vs. [^3H]PSB-603.

T2 sequence (P30543 whole entry): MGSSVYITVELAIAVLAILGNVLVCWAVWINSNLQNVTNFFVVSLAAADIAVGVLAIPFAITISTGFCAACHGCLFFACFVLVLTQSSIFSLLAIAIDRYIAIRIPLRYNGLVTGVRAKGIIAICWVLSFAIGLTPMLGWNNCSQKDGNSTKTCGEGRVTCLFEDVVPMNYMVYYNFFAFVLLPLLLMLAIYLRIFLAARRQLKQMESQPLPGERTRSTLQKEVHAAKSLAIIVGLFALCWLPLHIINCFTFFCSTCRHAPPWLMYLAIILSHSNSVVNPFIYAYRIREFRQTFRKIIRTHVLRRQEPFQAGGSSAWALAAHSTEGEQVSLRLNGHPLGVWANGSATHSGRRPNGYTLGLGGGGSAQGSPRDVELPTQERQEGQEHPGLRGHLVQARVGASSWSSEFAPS

As for `C#CCn1c(=O)c2c(nc3n2CCN(CCc2ccc(OC)cc2)C3)n(CC)c1=O` [Compound 20k, 1-ethyl-8-(4-methoxyphenethyl)-3-propargyl-6,7,8,9-tetrahydropyrazino[2,1-f]purine-2,4(1H,3H)-dione], the Ki in experiment [1] was 1600 nM; in experiment [2], 2700 nM; in experiment [3] it was above 1000 nM; in experiment [4], above 10000 nM. Besides, the inhibition at 1 µM in experiment [3] (setting [6]) turned out to be 10%. Also, the figures for the inhibition at 10 µM in experiment [4] and in experiment [5] were 22% and 25%, respectively. Besides, in experiment [5], the IC50 was above 10000 nM.

As to `Cn1c(=O)[nH]c(=O)c2c1nc1n2CCN(CCc2cccc(C(F)(F)F)c2)C1` [Compound 13e, 1-methyl-8-(3-(trifluoromethyl)phenethyl)-6,7,8,9-tetrahydropyrazino[2,1-f]purine-2,4(1H,3H)-dione], in experiment [1], the Ki was above 1500 nM and the inhibition at 1.5 µM was 9%. In experiment [2], the “% inhibition of radioligand binding at indicated concentration, A2A vs. [^3H]MSX-2” value (“% inhibition of radioligand binding” for short) turned out to be 4% and the Ki is above 1000 nM. Moreover, in experiment [3], the Ki is above 300 nM. Further, the inhibition at 0.3 µM in experiment [3] (at 300 nM, read-out: % inhibition of radioligand binding at indicated concentration, A2B vs. [^3H]PSB-603) worked out at 8%. Further, in experiment [4], the inhibitory constant (Ki) was above 10000 nM and the inhibition at 10 µM came to 39%. Also, in experiment [5], the inhibition at 10 µM was determined as 47% and the IC50 is around 10000 nM.

As to `Cn1c(=O)[nH]c(=O)c2c1nc1n2CCN(CCc2cccc(Br)c2)C1` [Compound 13d, 8-(3-bromophenethyl)-1-methyl-6,7,8,9-tetrahydropyrazino[2,1-f]purine-2,4(1H,3H)-dione], in experiment [1], the Ki is above 1500 nM and the inhibition at 1.5 µM came out at 1%. Moreover, in experiment [2], the “% inhibition of radioligand binding” value is 15% and the Ki was above 1000 nM. For the same compound, the inhibition constant Ki in experiment [3] was above 1000 nM. In addition, the inhibition at 1 µM in experiment [3] (setting [6]) worked out at 1%. Moreover, in experiment [4], the Ki is around 10000 nM and the inhibition at 10 µM was 45%.

Turning to `Cn1c(=O)[nH]c(=O)c2c1nc1n2CCN(Cc2cccc(C(F)(F)F)c2)C1` [Compound 13b, 1-methyl-8-(3-(trifluoromethyl)benzyl)-6,7,8,9-tetrahydropyrazino[2,1-f]purine-2,4(1H,3H)-dione], in experiment [1], the Ki was above 1500 nM and the inhibition at 1.5 µM is -1%. Besides, in experiment [2], the “% inhibition of radioligand binding” value is listed as 5% and the Ki was above 1000 nM. Also, the Ki in experiment [3] was above 1000 nM. The inhibition at 1 µM in experiment [3] (setting [6]) is 2%. In experiment [4], the Ki was above 10000 nM and the inhibition at 10 µM turned out to be 35%. Further, in experiment [5], the inhibition at 10 µM came out at 14% and the IC50 was above 10000 nM.

As to `Cn1c(=O)[nH]c(=O)c2c1nc1n2CCN(CCc2cccc(Cl)c2)C1` [Compound 13c, 8-(3-chlorophenethyl)-1-methyl-6,7,8,9-tetrahydropyrazino[2,1-f]purine-2,4(1H,3H)-dione], the inhibition constant Ki was above 1500 nM in experiment [1], above 1000 nM in experiment [2], above 1000 nM in experiment [3] and above 10000 nM in experiment [4]. The inhibition at 1.5 µM in experiment [1] amounted to 3%. In addition, the “% inhibition of radioligand binding” value in experiment [2] is 1%. Moreover, in experiment [3] (setting [6]), the inhibition at 1 µM was found to be 18%. In addition, the inhibition at 10 µM in experiment [4] was found to be 49%; in experiment [5], 54%. For the same compound, the half-maximal inhibitory concentration (IC50) in experiment [5] was around 10000 nM.

Turning to `CCn1c(=O)c2c(nc3n2CCN(Cc2ccc(Cl)cc2C(F)(F)F)C3)n(CC)c1=O` [Compound 15o, 8-(4-chloro-2-(trifluoromethyl)benzyl)-1,3-diethyl-6,7,8,9-tetrahydropyrazino[2,1-f]purine-2,4(1H,3H)-dione], in experiment [1], the inhibition constant Ki is above 1500 nM and the inhibition at 1.5 µM was found to be 41%. In experiment [2], the “% inhibition of radioligand binding” value came to 19% and the inhibitory constant (Ki) is above 1000 nM. For the same compound, the Ki in experiment [3] was above 1000 nM. Besides, in experiment [3] (setting [6]), the inhibition at 1 µM was 16%. Further, the Ki in experiment [4] stood at 1690 nM. Besides, in experiment [5], the inhibition at 10 µM is 5% and the IC50 is above 10000 nM.

For the compound `C#CCn1c(=O)c2c(nc3n2CCN(CCc2ccc(OC)c(OC)c2)C3)n(CC)c1=O` [Compound 20l], the inhibition constant (Ki) in experiment [1] was 3800 nM; in experiment [2] it was 7400 nM; in experiment [3] it was above 1000 nM; in experiment [4], above 10000 nM. Also, in experiment [3] (setting [6]), the inhibition at 1 µM is 9%. Further, the inhibition at 10 µM in experiment [4] amounted to 12%; in experiment [5], 3%. Moreover, the IC50 in experiment [5] was above 10000 nM.

Take `C#CCn1c(=O)c2c(nc3n2CCN(c2ccccc2F)C3)n(CC)c1=O` [Compound 20a, 1-ethyl-8-(2-fluorophenyl)-3-propargyl-6,7,8,9-tetrahydropyrazino[2,1-f]purine-2,4(1H,3H)-dione]: the Ki in experiment [1] was 1140 nM; in experiment [2], 1380 nM; in experiment [3], above 1000 nM; in experiment [4] it was 4270 nM. For the same compound, in experiment [3] (setting [6]), the inhibition at 1 µM is 8%. Moreover, the inhibition at 10 µM in experiment [5] came out at 29%. For the same compound, in experiment [5], the IC50 was above 10000 nM.

Regarding `C#CCn1c(=O)c2c(nc3n2CCN(c2ccc(OC)c(OC)c2)C3)n(CC)c1=O` [Compound 20d, 8-(3,4-dimethoxyphenyl)-1-ethyl-3-propargyl-6,7,8,9-tetrahydropyrazino[2,1-f]purine-2,4(1H,3H)-dione], the Ki was 1670 nM in experiment [1], 1580 nM in experiment [2], above 1000 nM in experiment [3] and 3640 nM in experiment [4]. The inhibition at 1 µM in experiment [3] (setting [6]) turned out to be 8%. In addition, the inhibition at 10 µM in experiment [5] is 13%. Also, the IC50 in experiment [5] is above 10000 nM.

One may read the Ki as a measure of affinity in units of concentration, obtained from inhibition or displacement. As usually defined, the IC50 is the midpoint of a concentration-inhibition curve.
